Legend:
PKC∈ = PKC∈ expression in MCF-7 cells (Western blotting, immunofluorescence); assay type: cell-based, human; settings: TPA 25 nM
Procedure: Western blotting study: Given that the protein sequence of LIV21 has putative PKC phosphorylation sites, including two specific for PKC∈, the inventor tested the variation in the expression of this PKC as a function of the duration of TPA treatment. […] The expression of PKCzeta (PKCζ) is used as an internal control since it is not sensitive to TPA.
The protein extracts are heated at 80° C. for 5 minutes in a Laemmli buffer (pH 7.4, 0.06 M Tris, 3% SDS, 10% glycerol, 1 nM PMSF, β-mercaptoethanol). The migration is carried out by SDS-PAGE (sodium dodecyl sulfate-polyacrylamide gel electrophoresis). 10 to 20 μg of proteins migrate in a 12% polyacrylamide gel for 1 h under denaturing conditions (migration buffer: 25 mM Tris base, 192 mM glycine, 1% SDS, pH 8.3). The proteins are then transferred onto a nitrocellulose membrane (Schleicher & Schuell) for one hour by liquid transfer, in a transfer membrane (25 mM Tris, 192 mM glycine, 20% methanol, pH 8.3). The membranes, saturated in PBS-0.1% Tween-0.1% Triton X100-5% skimmed milk for one hour, are brought into contact with the primary antibody diluted in PBS-0.1% Tween-0.1% Triton X100-1% milk at ambient temperature with gentle agitation for one hour to two hours. After washing, the peroxidase-coupled secondary antibody is incubated with the membranes for 1 h. […]

MCF-7 cells [1] = experiment: FACS analysis of cell cycle phases in TPA-treated MCF-7 cells; assay type: cell-based, human
Procedure: However, without any further addition of TPA, the number of cells in the S phase increases again so as to return to the initial state at 72 h of treatment. G2/M phase: The number of cells in the G2/M phase increases from the beginning of the treatment, with a maximum observed at 12 hours (FIG. 15B). G0/G1 phase: The number of cells in the G0/G1 phase is at a minimum at 6 hours and at a maximum at 24 hours (FIG. 15C).
A maximum of cells in the S phase are therefore observed in the early periods of the kinetics (0 h to 6 h), a maximum of cells in the G2/M phase is observed at 12 h and, finally, a maximum of cells in the G0/G1 phase is observed at 24 h. Finally, without any further addition of TPA, the cells return to the S phase at 72 h.

MCF-7 cells [2] = experiment: Cell growth monitoring (counting) and morphology of MCF-7 cultures with or without TPA; assay type: cell-based, human; settings: TPA 25 nM
Procedure: It has been described in the literature that TPA induces the arrest of proliferation and the differentiation of tumor cells of the MCF-7 line. In order to validate the culture conditions, the cell growth was monitored (by counting) beforehand over three days of culture in the presence or absence of TPA at a concentration of 25 nM (FIG. 14).
However, in the period of time over which the cells were studied, the secretory phenotype (appearance of granules and of secretory canaliculi) was not observed.

MCF-7 line = settings: literature description; cited from earlier work
LIV21 = experiment: Nuclear translocation of LIV21 in MCF-7 cells (Western blotting of extracts/fractions, immunocytochemistry); assay type: cell-based, human
Procedure: The results obtained by flow cytometry led the inventor to study, in parallel, the expression of LIV21 in nuclear extracts prepared after 12 h, 24 h, 48 h and 72 h of TPA treatment (FIG. 16A). […] It lasts until the reinitiation of the cell cycle observed at 72 h.
However, it is interesting to note that the expression of LIV21 already begins from 1 h of treatment in certain cells, since they are not synchronous.
The effect of the selective inhibition of the activity of PKC∈ on the nuclear translocation of LIV21 was studied by immunocytochemistry. These experiments were carried out on nontreated cultures or cultures treated for 12 h with TPA at 25 nM or with the peptide at two different concentrations, 1 and 2 μM (FIG. 20).
The protein extracts are heated at 80° C. for 5 minutes in a Laemmli buffer (pH 7.4, 0.06 M Tris, 3% SDS, 10% glycerol, 1 nM PMSF, β-mercaptoethanol). The migration is carried out by SDS-PAGE (sodium dodecyl sulfate-polyacrylamide gel electrophoresis). 10 to 20 μg of proteins migrate in a 12% polyacrylamide gel for 1 h under denaturing conditions (migration buffer: 25 mM Tris base, 192 mM glycine, 1% SDS, pH 8.3). The proteins are then transferred onto a nitrocellulose membrane (Schleicher & Schuell) for one hour by liquid transfer, in a transfer membrane (25 mM Tris, 192 mM glycine, 20% methanol, pH 8.3). The membranes, saturated in PBS-0.1% Tween-0.1% Triton X100-5% skimmed milk for one hour, are brought into contact with the primary antibody diluted in PBS-0.1% Tween-0.1% Triton X100-1% milk at ambient temperature with gentle agitation for one hour to two hours. After washing, the peroxidase-coupled secondary antibody is incubated with the membranes for 1 h. Revelation is carried out by means of a chemiluminescence reaction using the ECL kit according to the supplier's protocol (Amersham).

Compound	PKC∈ localization (immunofluorescence) (PKC∈; 12 h)	PKC∈ expression (Western blotting, total extracts) (PKC∈; as a function of duration of treatment)	time of optimal reduction of the number of cells in the S phase (MCF-7 cells [1]; TPA 25 nM, single addition) [h]	time of maximum number of cells in the G0/G1 phase (MCF-7 cells [1]; TPA treatment) [h]	time of maximum number of cells in the G2/M phase (MCF-7 cells [1]; TPA treatment) [h]	time of minimum number of cells in the G0/G1 phase (MCF-7 cells [1]; TPA treatment) [h]	time at which cells reinitiate the cell cycle (MCF-7 cells [1]; after single addition of TPA) [h]	cell morphology / differentiation (MCF-7 cells [2])	number of cells in control cultures relative to treated cultures (MCF-7 cells [2]; after 3 days of treatment)	cell proliferation (cell counts) (MCF-7 cells [2]; three days of culture)	proliferation of cells of human mammary tumor lines such as MCF-7 (MCF-7 line)	colocalization of PML and LIV21 (double labeling) (LIV21; 24 h of TPA treatment (25 nM))	time of maximum nuclear translocation of LIV21 (immunocytochemistry) (LIV21; TPA 25 nM) [h]	anti-LIV21 immunoreactivity in nuclear extracts (Western blot) (LIV21; TPA 25 nM, 12 h, 24 h, 48 h and 72 h)	nuclear translocation of LIV21 (immunocytochemistry) (LIV21; peptide 1 μM, 12 h)	nuclear translocation of LIV21 (immunocytochemistry) (LIV21; peptide 2 μM, 12 h, compared with TPA 25 nM)	nuclear translocation of LIV21 (immunocytochemistry) (LIV21; peptide 2 μM, 12 h, compared with TPA 25 nM, listed as PKCε-inhibiting peptide)	LIV21 expression profile in cytoplasmic and nuclear fractions (cell fractionation, Western blot) (LIV21; peptide 2 μM, 12 h, compared with TPA-treated cultures)
CCCCCCCCCCCCCC(=O)O[C@@H]1[C@@H](C)[C@@]2(O)[C@@H](C=C(CO)C[C@]3(O)C(=O)C(C)=C[C@@H]23)[C@H]2C(C)(C)[C@]12OC(C)=O [TPA]	disappears from the cytoplasm	decreases from 30 min	12	24	12	6	72	rapidly acquire characteristics of differentiated mammary gland cells	twice as many cells	clearly inhibits proliferation	drastically inhibits the proliferation	colocalized in the nuclei	12	maximum anti-LIV21 immunoreactivity was observed from 12 h, was maintained up to 48 h				
EAVSLKPT (listed as Homo sapiens) [PKC∈-inhibiting peptide]															absence of nuclear translocation of LIV21	effect identical to that of TPA	same effectiveness as	same LIV21 expression profile

Source: US8039439B2, “Cellular cycle anomalies for targeting oncology and neurodegeneration” (priority 2005, dated 2011)
